For data set [1], the target named is T1, Histamine dose-response in isolated ileum from male Hartley guinea-pigs (Cavia porcellus, UniProt P31389).
T1 construct: The ileum was isolated from male Hartley guinea-pigs; from tissue; host or cells: isolated ileum of male Hartley guinea-pigs
Kind of data set: Anti-histaminic effect, isolated guinea-pig ileum (KB by Furchgott method). The settings on record: dissociation constant KB (M) of antagonist vs histamine; test drug applied 30 minutes before; 28° C.; read-out: -Log KB (anti-histaminic effect) (converted). Also on record: species or system guinea-pig (male Hartley). How it is done:
(§1) The ileum was isolated from male Hartley guinea-pigs (5 to 8 weeks of age). The preparation was suspended in a bath containing Locke-Ringer nutritional solution (NaCl: 154 mM, KCl: 5.6 mM, CaCl2 .2H2 O: 2.2 mM, MgCl2.6H2 O: 2.1 mM, NaHCO3 : 5.9 mM, glucose: 2.8 mM) bubbled with 95% O2 +5% CO2 mixed gas at 28° C., and then 0.5 g weight was loaded and tention through isotonic transducer was recorded using a recorder. Histamine was cumulatively applied 3 times at intervals of 40 minutes, and the dose-response curve of the third experiment, for which a test drug was applied 30 minutes before the experiment, was compared with the result of the second experiment as a reference. Dissociation constants KB (M) of antagonists were calculated according to the method of Furchgott. From the results shown in Table 1, it is apparent that the compounds of the present invention have excellent anti-histaminic activities.

In data set [2] the test system is PCA reaction in passively sensitized male Wistar rats. Kind of data set: Anti-allergic effect (Inhibitory effect on PCA reaction). The note with it: Rattus norvegicus, po, 1 h, 1 mg/kg orally, antigen challenge after one hour, read-out: Inhibition rate (%) of PCA reaction. It counts as in vivo, rat (male Wistar). How it is done: 0.1 ml of anti-dinitrophenylated ascaris extract (DNP-As) rat IgE serum was injected intracutaneously to the back of male Wistar rats (6 weeks of age). After 48 hours, a solution of 1% Evans blue in physiological saline containing 1 mg of an antigen (DNP-As) was administered from caudal vein. After 30 minutes, the animals were exsanguinated and dyes in blue spots were extracted with 1N KOH, and then the amounts of the dyes were measured by absorbance at 620 nm. After the passively sensitized rats described above were fasted for 16 to 18 hours, 1 mg/kg of each test compound was administered orally to the rats, and then the rats were challenged with antigen after one hour. The amounts of dyes in the test animals were compared with those of the control to obtain the inhibition rate (%) of PCA reaction.

Data set [3] concerns the target T2, Acetylcholine dose-response in isolated ileum from male Hartley guinea-pigs (Cavia porcellus, UniProt H0W1Z3).
T2 construct: The ileum was isolated from male Hartley guinea-pigs; from tissue; host or cells: isolated ileum of male Hartley guinea-pigs
The experiment in a line: Anti-acetylcholinergic effect, isolated guinea-pig ileum (KB by Furchgott method). Also on record: species or system guinea-pig (male Hartley). The note with it: dissociation constant KB (M) of antagonist vs acetylcholine; test drug applied 30 minutes before; 28° C.; read-out: -Log KB (anti-acetylcholinergic effect) (converted). How it is done:
as §1, with “CaCl2.H2” for “CaCl2 .2H2”, “MgCl2. 6H2” for “MgCl2.6H2”, “Acetylcholine” for “Histamine”, “3,” for “1,”, “almost no anti-acetylcholinergic” for “excellent anti-histaminic”

For data set [4] the following is noted: known adverse reactions, background art; cited from earlier work.

T2 sequence (H0W1Z3 1-590): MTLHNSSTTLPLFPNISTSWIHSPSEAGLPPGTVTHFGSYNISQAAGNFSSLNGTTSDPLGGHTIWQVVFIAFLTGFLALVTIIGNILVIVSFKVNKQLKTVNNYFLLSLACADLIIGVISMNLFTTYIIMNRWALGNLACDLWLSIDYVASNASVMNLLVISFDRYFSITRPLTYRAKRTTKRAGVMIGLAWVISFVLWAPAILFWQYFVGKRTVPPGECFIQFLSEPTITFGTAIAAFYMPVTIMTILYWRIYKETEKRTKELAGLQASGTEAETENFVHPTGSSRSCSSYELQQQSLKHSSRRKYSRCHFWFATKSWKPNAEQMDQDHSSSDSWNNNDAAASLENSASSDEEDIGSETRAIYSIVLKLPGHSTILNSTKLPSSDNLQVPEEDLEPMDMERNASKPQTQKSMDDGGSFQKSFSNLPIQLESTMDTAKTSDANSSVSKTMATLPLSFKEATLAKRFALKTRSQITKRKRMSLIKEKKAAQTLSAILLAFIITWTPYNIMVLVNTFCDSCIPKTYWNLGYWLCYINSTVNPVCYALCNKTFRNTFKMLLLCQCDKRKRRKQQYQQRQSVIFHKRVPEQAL
T1 sequence (P31389 whole entry): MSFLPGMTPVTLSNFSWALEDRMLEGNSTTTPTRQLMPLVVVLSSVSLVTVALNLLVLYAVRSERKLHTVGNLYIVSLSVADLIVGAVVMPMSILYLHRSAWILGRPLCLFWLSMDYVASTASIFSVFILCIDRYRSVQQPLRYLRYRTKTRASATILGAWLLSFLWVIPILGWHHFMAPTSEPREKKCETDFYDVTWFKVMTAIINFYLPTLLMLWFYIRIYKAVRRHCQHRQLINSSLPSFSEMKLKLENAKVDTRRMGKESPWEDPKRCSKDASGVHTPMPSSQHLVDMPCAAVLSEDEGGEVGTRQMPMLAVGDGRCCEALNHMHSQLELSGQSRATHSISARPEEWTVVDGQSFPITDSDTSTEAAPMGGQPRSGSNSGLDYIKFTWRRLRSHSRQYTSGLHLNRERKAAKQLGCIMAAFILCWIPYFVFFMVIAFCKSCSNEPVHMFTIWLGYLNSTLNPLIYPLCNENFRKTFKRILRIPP

As for `CN(CCC=C1c2ccccc2C=Cc2ccccc21)CCC(=O)O` [Example 14, 3-[N-[3-(5H-Dibenzo[a,d]cyclohepten-5-ylidene)propyl]-N-methylamino]propionic Acid], the values for the Kb in data set [1] and in data set [3] were 6.92e-09 M and 1.51e-05 M, respectively. The inhibition at 1 mg/kg in data set [2] stood at 72%.
On to `CN(CCC=C1c2ccccc2C=Cc2ccccc21)CCCC(=O)O` [Example 15, 4-[N-[3-(5H-Dibenzo[a,d]cyclohepten-5-ylidene)propyl]-N-methylamino]butyricAcid], for which the Kb in data set [1] is 4.27e-09 M; in data set [3] it was 2.57e-06 M.
On to `CN(CCC=C1c2ccccc2C=Cc2ccccc21)CC(=O)O` [Example 16, [N-[3-(5H-Dibenzo[a,d]cyclohepten-5-ylidene)propyl]-N-methylamino]acetic Acid], for which the Kb in data set [1] is 3.16e-08 M; in data set [3] it was 1.26e-05 M.
On to `CN(CCC=C1c2ccccc2C=Cc2ccccc21)CCCCC(=O)O` [Example 17, 5-[N-[3-(5H-Dibenzo[a,d]cyclohepten-5-ylidene)propyl]-N-methylamino]valericAcid], for which the antagonist equilibrium constant (Kb) in data set [1] was 6.17e-09 M; in data set [3] it was 9.12e-07 M. The inhibition at 1 mg/kg in data set [2] came out at 72%.
For `CN(CCC=C1c2ccccc2C=Cc2ccccc21)CCCCCC(=O)O` [Example 18, 6-[N-[3-(5H-Dibenzo[a,d]cyclohepten-5-ylidene)propyl]-N-methylamino]hexanoic Acid], in that order: 1.2e-08 M, 5.5e-07 M and 50%.
Take `CN(CCC=C1c2ccccc2COc2ccccc21)CC(=O)O` [Example 19, [N-[3-(Dibenz[b,e]oxepin-11(6H)-ylidene)propyl]-N-methylamino]acetic Acid]: the antagonist dissociation constant (Kb) is 1.55e-08 M in data set [1] and 4.9e-05 M in data set [3].
Consider `CN(CCC=C1c2ccccc2COc2ccccc21)CCC(=O)O` [Example 20, 3-[N-[3-(Dibenz[b,e]oxepin-11(6H)-ylidene)propyl]-N-methylamino]propionic Acid], for which the Kb is 3.09e-09 M in data set [1] and 7.08e-06 M in data set [3]. The inhibition at 1 mg/kg in data set [2] was found to be 69%.
On to `CN(CCC=C1c2ccccc2COc2ccccc21)CCCC(=O)O` [Example 21, 4-[N-[3-(Dibenz[b,e]oxepin-11(6H)-ylidene)propyl]-N-methylamino]butyric Acid], for which the antagonist equilibrium constant (Kb) in data set [1] was 3.47e-09 M; in data set [3], 7.24e-06 M.
Regarding `CN(CCC=C1c2ccccc2COc2ccccc21)CCCCC(=O)O` [Example 22, 5-[N-[3-(Dibenz[b,e]oxepin-11(6H)-ylidene)propyl]-N-methylamino]valeric Acid], the Kb in data set [1] is 4.37e-09 M; in data set [3], 1e-05 M. In data set [2], the inhibition at 1 mg/kg amounted to 62%.
As for `CN(CCC=C1c2ccccc2COc2ccccc21)CCCCCC(=O)O` [Example 23, 6-[N-[3-(Dibenz[b,e]oxepin-11(6H)-ylidene)propyl]-N-methylamino]hexanoic Acid], the Kb was 7.76e-09 M in data set [1] and 3.16e-06 M in data set [3].
As for `CN(C)CCC=C1c2ccccc2C=Cc2ccccc21` [cyclobenzaprine, Cyclobenzaprine, reference compound], the inhibition at 1 mg/kg in data set [2] amounted to 14%. Besides, the antagonist dissociation constant (Kb) in data set [3] was 7.59e-09 M. Also, in data set [4], the adverse reactions entry is “sleepiness, dizziness, fatigue, thirst, nausea, constipation, and dyspepsia”.
As for `CN(C)CCC=C1c2ccccc2COc2ccccc21` [doxepin, Doxepin, reference compound], the inhibition at 1 mg/kg in data set [2] turned out to be 21%. The Kb in data set [3] was 5.89e-08 M. Also, in data set [4], the adverse reactions entry is “sleepiness, thirst, and constipations”.
